Data reported in the supplement of paper PMC10307832.

How the values were obtained:
Test in all cases: relative viability (nuclei count vs DMSO), 5 days (fraction); higher = more cells survive
XMD14-99 + Bortezomib = compound: CN1CCN(CC1)C2=CC(=C(C=C2)NC3=NC(=C(S3)C(=O)C4=C(C=CC=C4Cl)Cl)N)OC [XMD14-99] + CC(C)C[C@H](NC(=O)[C@H](Cc1ccccc1)NC(=O)c1cnccn1)B(O)O [Bortezomib] (partner 0.002 µM)
Summary of the method: (§1)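 Relative viability equals treated-well nuclei counts divided by vehicle-well nuclei counts. Counts came from 4× images of lung cancer cell lines grown in 1536-well plates for 5 days after pin-tool dosing on the day after seeding. Dosing used one drug alone or a fixed anchor-drug dose plus five library-drug doses (not always all listed) in √10 steps, and values are medians of duplicate plates.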

XMD14-99 + Pemetrexed = compound: CN1CCN(CC1)C2=CC(=C(C=C2)NC3=NC(=C(S3)C(=O)C4=C(C=CC=C4Cl)Cl)N)OC [XMD14-99] + Nc1nc2[nH]cc(CCc3ccc(C(=O)N[C@@H](CCC(=O)O)C(=O)O)cc3)c2c(=O)[nH]1 [Pemetrexed] (partner 0.2 µM)
Summary of the method: as §1

AZD1208 + Phenformin = compound: N[C@@H]1CCCN(c2c(/C=C3\SC(=O)NC3=O)cccc2-c2ccccc2)C1 [AZD1208] + N=C(N)NC(=N)NCCc1ccccc1 [Phenformin] (partner 250 µM)
Summary of the method: as §1

XMD14-99 = compound: CN1CCN(CC1)C2=CC(=C(C=C2)NC3=NC(=C(S3)C(=O)C4=C(C=CC=C4Cl)Cl)N)OC [XMD14-99]
Summary of the method: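 Hoechst staining, done together with fixation and permeabilisation, marked nuclei for 4× imaging and MetaXpress counting. This followed 5 days without medium change after lung cancer cell lines, kept overnight at 37 °C in 1536-well plates, were pinned with five library-drug doses (not always all listed) spaced by √10 on vehicle-anchored plates. Viability is the ratio of treated-well to vehicle-well nuclei, expressed as a median across plates. Plates passed only at control CV below 25% with at least one doubling.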

| Cell Line | relative viability (XMD14-99 + Bortezomib; first compound 0.08 µM) | relative viability (XMD14-99 + Bortezomib; first compound 0.8 µM) | relative viability (XMD14-99 + Bortezomib; first compound 2.53 µM) | relative viability (XMD14-99 + Bortezomib; first compound 8 µM) | relative viability (XMD14-99 + Pemetrexed; first compound 0.08 µM) | relative viability (XMD14-99 + Pemetrexed; first compound 0.8 µM) | relative viability (XMD14-99 + Pemetrexed; first compound 2.53 µM) | relative viability (XMD14-99 + Pemetrexed; first compound 8 µM) | relative viability (AZD1208 + Phenformin; first compound 0.08 µM) | relative viability (AZD1208 + Phenformin; first compound 0.253 µM) | relative viability (AZD1208 + Phenformin; first compound 0.8 µM) | relative viability (AZD1208 + Phenformin; first compound 2.53 µM) | relative viability (AZD1208 + Phenformin; first compound 8 µM) | relative viability (XMD14-99; 0.08 µM) | relative viability (XMD14-99; 0.8 µM) | relative viability (XMD14-99; 2.53 µM) | relative viability (XMD14-99; 8 µM) |
| --- | --- | --- | --- | --- | --- | --- | --- | --- | --- | --- | --- | --- | --- | --- | --- | --- | --- |
| NCI-H1755 | 0.854 | 0.947 | 0.859 | 0.795 | 0.419 | 0.378 | 0.37 | 0.391 | 0.586 | 0.616 | 0.623 | 0.593 | 0.502 | 0.996 | 0.974 | 1.01 | 0.784 |
| NCI-H1792 | 0.982 | 0.888 | 0.849 | 0.66 | 1.03 | 0.72 | 0.68 | 0.529 | 0.371 | 0.233 | 0.179 | 0.258 | 0.138 | 1.02 | 0.879 | 0.818 | 0.471 |
| NCI-H1915 | 1.03 | 0.97 | 0.872 | 0.904 | 0.472 | 0.475 | 0.431 | 0.426 | 0.366 | 0.402 | 0.372 | 0.348 | 0.352 | 0.991 | 0.958 | 0.91 | 0.796 |
| NCI-H1975 | 0.388 | 0.359 | 0.347 | 0.272 | 0.293 | 0.307 | 0.333 | 0.283 | 0.413 | 0.449 | 0.393 | 0.404 | 0.359 | 0.992 | 0.994 | 0.917 | 0.788 |
| NCI-H1993 | 1.14 | 0.956 | 0.92 | 0.864 | 0.708 | 0.541 | 0.524 | 0.448 | 0.538 | 0.468 | 0.522 | 0.471 | 0.488 | 0.89 | 0.987 | 0.872 | 0.806 |
| NCI-H2009 | 1.05 | 0.968 | 0.919 | 0.682 | 1.07 | 1 | 0.947 | 0.997 | 0.481 | 0.489 | 0.491 | 0.489 | 0.441 | 0.987 | 1.03 | 0.887 | 0.804 |
| NCI-H2023 | 0.931 | 0.945 | 0.83 | 0.645 | 0.249 | 0.249 | 0.224 | 0.167 | 0.394 | 0.386 | 0.348 | 0.367 | 0.295 | 0.961 | 0.875 | 0.953 | 0.71 |
| NCI-H2085 | 1.13 | 1.03 | 0.954 | 0.745 | 0.9 | 0.899 | 0.839 | 0.65 | 0.679 | 0.677 | 0.675 | 0.688 | 0.668 | 1 | 0.978 | 0.961 | 0.837 |
| NCI-H2087 | 0.85 | 0.705 | 0.709 | 0.45 | 0.681 | 0.644 | 0.597 | 0.611 | 0.46 | 0.554 | 0.41 | 0.481 | 0.336 | 0.957 | 0.968 | 0.818 | 0.483 |
| NCI-H2126 | 1.16 | 1.08 | 1.08 | 0.946 | 0.634 | 0.681 | 0.677 | 0.537 | 0.506 | 0.507 | 0.493 | 0.545 | 0.466 | 0.993 | 0.991 | 0.977 | 0.897 |
| NCI-H2228 | 1.17 | 0.974 | 0.871 | 0.337 | 0.324 | 0.319 | 0.398 | 0.257 | 0.364 | 0.316 | 0.209 | 0.269 | 0.216 | 1.12 | 0.961 | 0.891 | 0.398 |
| NCI-H2347 | 1.22 | 0.691 | 0.981 | 0.553 | 0.46 | 0.426 | 0.391 | 0.35 | 0.302 | 0.46 | 0.363 | 0.347 | 0.389 | 1.04 | 1 | 0.966 | 0.637 |
| NCI-H2405 | 1.06 | 0.99 | 0.9 | 0.874 | 1.02 | 1.13 | 1 | 0.654 | 0.385 | 0.384 | 0.35 | 0.362 | 0.35 | 0.962 | 1.02 | 0.964 | 0.726 |
| NCI-H3122 | 0.965 | 0.948 | 0.913 | 0.692 | 0.192 | 0.185 | 0.205 | 0.164 | 0.413 | 0.4 | 0.406 | 0.417 | 0.422 | 1 | 0.995 | 0.892 | 0.694 |
| PC-3 [JPC-3] | 0.901 | 0.832 | 0.832 | 0.723 | 1.28 | 1.13 | 1.1 | 0.635 | 0.47 | 0.5 | 0.496 | 0.515 | 0.504 | 1.08 | 1.03 | 0.95 | 0.818 |
| PC-14 | 0.831 | 0.713 | 0.735 | 0.698 | 0.148 | 0.138 | 0.115 | 0.131 | 0.778 | 0.616 | 0.525 | 0.544 | 0.565 | 1.02 | 1.01 | 0.907 | 0.646 |
| RERF-LC-KJ | 1.07 | 1.18 | 1.08 | 0.852 | 0.469 | 0.506 | 0.452 | 0.449 | 0.402 | 0.44 | 0.427 | 0.41 | 0.379 | 0.991 | 0.938 | 0.903 | 0.834 |
| SK-LU-1 | 1.43 | 1.42 | 1.03 | 0.943 | 0.98 | 1.02 | 0.942 | 0.684 | 0.502 | 0.543 | 0.408 | 0.506 | 0.42 | 0.987 | 1.04 | 0.948 | 0.7 |
